row,Compound,melting point
1,"CC(C)Cn1c(=O)n(C)c(=O)c2cc(C(O)c3ccc([N+](=O)[O-])cc3)sc21 (stereo not drawn) [Example 90, 6-[1-Hydroxy-(4-nitrophenyl)methyl]-3-methyl-1-(2-methylpropyl)thieno[2,3-d]pyrimidin-2,4(1H,3H)-dione]",127 °C
2,"CC(C)Cn1c(=O)n(C)c(=O)c2c(SCCC(C)O)c(Cc3cccc4ccccc34)sc21 (racemic) [Example 85, (±)-5-[(3-Hydroxybutyl)thio]-3-methyl-1-(2-methylpropyl)-6-(1-naphthalenylmethyl)thieno2,3-d]pyrimidine-2,4(1H,3H)-dione]",162 to 163 °C
3,"CC(C)Cn1c(=O)n(C)c(=O)c2c(Sc3ccccn3)c(Cc3cccc4ccccc34)sc21 [Example 5, 3-Methyl-1-(2-methylpropyl)-6-(1-naphthalenylmethyl)-5-[(2-pyridinyl)thio]thieno[2,3-d]pyrimidine-2,4(1H,3H)-dione]",148 to 149 °C
4,CC(C)Cn1c(=O)n(C)c(=O)c2c(NC(=O)NCCO)c(Cc3cccc4ccccc34)sc21 [Example 48],227 to 228 °C
5,"COC(=O)CCCSc1c(Cc2cccc3ccccc23)sc2c1c(=O)n(C)c(=O)n2CC(C)C [Example 7, Methyl 4-[(1,2,3,4-tetrahydro-3-methyl-1-(2-methylpropyl)-6-(1-naphthalenylmethyl)-2,4-dioxothieno[2,3-d]pyrimidin-5-y)thio]butanoate]",111 to 112 °C
6,"CC(C)Cn1c(=O)n(C)c(=O)c2cc(C(O)c3ccccc3)sc21 (stereo not drawn) [Example 14, 6-[(1-Hydroxy-1-phenyl)methyl]-3-methyl-1-(2-methylpropyl)thieno[2,3-d]pyrimidine-2,4(1H,3H)-dione]",140 to 142 °C
7,CC(C)Cn1c(=O)n(C)c(=O)c2c(SCCCO)c(Cc3cccc(F)c3)sc21 [Example 86],99 to 100 °C
8,CC(C)Cn1c(=O)n(C)c(=O)c2c(NC(=O)N(C)CCO)c(Cc3cccc4ccccc34)sc21 [Example 50],151 to 152 °C
9,"CC(C)Cn1c(=O)n(C)c(=O)c2c(Sc3ccc(N)cc3)c(Cc3cccc4ccccc34)sc21 [Example 36, 5-[(4-Aminophenyl)thio]-3-methyl-1-(2-methylpropyl)-6-(1-naphthalenylmethyl)thieno[2,3-d]pyrimidine-2,4-(1H, 3H)-dione]",177 to 178 °C
10,COC(=O)Nc1cccc(Sc2c(Cc3cccc4ccccc34)sc3c2c(=O)n(C)c(=O)n3CC(C)C)c1 [Example 33],167 to 168 °C
11,"CC(C)Cn1c(=O)[nH]c(=O)c2cc(Cc3cccc4ccccc34)sc21 [Example 3, 1-(2-Methylpropyl)-6-(1-naphthalenylmethyl)thieno[2,3-d]pyrimidine-2,4(1H,3H)-dione]",189 to 190 °C
12,"CC(C)Cn1c(=O)n(C)c(=O)c2c(SCC(C)O)c(Cc3cccc4ccccc34)sc21 (racemic) [Example 15, (±) 5-[(2-Hydroxypropyl)thio]-3-methyl-1-(2-methylpropyl)-6-(1-naphthalenylmethyl)thieno[2,3-d]pyrimidine-2,4(1H,3H)-dione]",126 to 128 °C
13,"CC(C)Cn1c(=O)n(C)c(=O)c2cc(Cc3ccc(N)cc3)sc21 [Example 92, 6-(4-Aminophenylmethyl)-3-methyl-1-(2-methylpropyl)thieno[2,3-d]pyrimidine-2,4-(1H, 3H)-dione]",104 °C
14,"CC(C)Cn1c(=O)n(C)c(=O)c2c(C(=O)NCCO)c(Cc3cccc4ccccc34)sc21 [Example 16, 1,2,3,4-Tetrahydro-N-(2-hydroxyethyl)-3-methyl-1-(2-methylpropyl)-6-(1-naphthalenylmethyl)-2,4-dioxothieno[2,3-d]pyrimidine-5-carboxamide]",193 to 194 °C
15,"COC(=O)CCCS(=O)(=O)c1c(Cc2cccc3ccccc23)sc2c1c(=O)n(C)c(=O)n2CC(C)C [Example 10, Methyl 4-[(1,2,3,4-tetrahydro-3-methyl-1-(2-methylpropyl)-6-(1-naphthalenylmethyl)-2,4-dioxothieno[2,3-d]pyrimidin-5-yl)sulfonyl]butanoate]",122 to 124 °C
16,"CC(C)Cn1c(=O)n(C)c(=O)c2cc(Cc3ccccc3C(N)=O)sc21 [Example 82, 2-[(1,2,3,4-tetrahydro-3-methyl-1-(2-methylpropyl)-2,4-dioxothieno[2,3-d]pyrimidin-6-yl)methyl]benzamido]",183 °C
17,"CC(C)Cn1c(=O)n(C)c(=O)c2c(SCCCC(=O)O)c(Cc3cccc4ccccc34)sc21 [Example 8, 4-[(1,2,3,4-Tetrahydro-3-methyl-1-(2-methylpropyl)-6-(1-naphthalenylmethyl)-2,4-dioxothieno[2,3-d]pyrimidin-5-yl)thio]butanoic acid]",172 to 173 °C
18,CC(C)Cn1c(=O)n(C)c(=O)c2cc(Cc3cccc4ccccc34)sc21 [Example 4],137 to 138 °C
19,"CC(C)Cn1c(=O)n(C)c(=O)c2c(S(=O)(=O)CCCC(=O)O)c(Cc3cccc4ccccc34)sc21 [Example 11, 4-[(1,2,3,4-Tetrahydro-3-methyl-1-(2-methylpropyl)-6-(1-naphthalenylmethyl)-2,4-dioxothieno[2,3-d]pyrimidin-5-yl)sulfonyl]butanoic acid]",174 to 181 °C
20,"CC(=O)Nc1cccc(Sc2c(Cc3cccc4ccccc34)sc3c2c(=O)n(C)c(=O)n3CC(C)C)c1 [Example 34, 5-[(3-Acetamidophenyl)thio]-3-methyl-1-(2-methylpropyl)-6-(1-naphthalenylmethyl)thieno[2,3-d]pyrimidine-2,4-(1H, 3H)-dione]",173 to 174 °C
21,CC(C)Cn1c(=O)n(C)c(=O)c2c(S(=O)(=O)c3cccc(O)c3)c(Cc3cccc4ccccc34)sc21 [Example 29],209 to 210 °C
22,"CC(C)Cn1c(=O)n(C)c(=O)c2cc(Cc3cccc(F)c3)sc21 [Example 52, 6-[(3-Fluorophenyl)methyl]-3-methyl-1-(2-methylpropyl)thieno[2,3-d]pyrimidine-2,4-(1H, 3H)-dione]",76 to 78 °C
23,"CC(C)Cn1c(=O)n(C)c(=O)c2c(SCCCN=[N+]=[N-])c(Cc3cccc4ccccc34)sc21 [Example 39, 5-[(3-Azidopropyl)thio]-3-methyl-1-(2-methylpropyl)-6-(1-naphthalenylmethyl)thieno[2,3-d]pyrimidine-2,4(1H,3H)-dione]",94 to 96 °C
24,"CC(C)Cn1c(=O)n(C)c(=O)c2c(C(=O)N(C)C)c(Cc3ccccc3)sc21 [Example 89, 1,2,3,4-Tetrahydro-3,N,N-trimethyl-1-(2-methylpropyl)-6-phenylmethy-2,4-dioxothieno[2,3-d]pyrimidine-5-carboxamide]",144 to 146 °C

# Second part, the molecule after the results:
row,melting point,Compound
1,114 to 117 °C,CC(=O)NCCCSc1c(Cc2cccc3ccccc23)sc2c1c(=O)n(C)c(=O)n2CC(C)C [Example 41]
2,200 to 201 °C,"CC(C)Cn1c(=O)n(C)c(=O)c2c(Sc3cccc(O)c3)c(Cc3cccc4ccccc34)sc21 [Example 27, 5-[(3-Hydroxyphenyl)thio]-3-methyl-1-(2-methylpropyl)-6-(1-naphthalenylmethyl)thieno[2,3-d]pyrimidine-2,4-(1H,3H)-dione]"
3,218 to 219 °C,"CC(C)Cn1c(=O)n(C)c(=O)c2c(C(=O)NCC(=O)O)c(Cc3cccc4ccccc34)sc21 [Example 21, 2-{[1,2,3,4-Tetrahydro-3-methyl-1-(2-methylpropyl)-6-(1-naphthalenylmethyl)-2,4-dioxothieno[2,3-d]pyrimidin-5-yl]carboxamido}acetic acid]"
4,100 to 105 °C,"CC(C)Cn1c(=O)n(C)c(=O)c2c(SCCCO)c(C(O)c3cccc4ccccc34)sc21 (racemic) [Example 83, (±) 6-(1-Hydroxy-1-[1-naphthalenyl]methyl)-5-([3-hydroxypropyl]thio)-3-methyl-1-(2-methylpropyl)thieno[2,3-d]pyrimidine-2,4(1H,3H)-dione]"
5,200 to 201 °C,"CC(C)Cn1c(=O)n(C)c(=O)c2c(Sc3ccc([N+](=O)[O-])cn3)c(Cc3cccc4ccccc34)sc21 [Example 37, 3-Methyl-1-(2-methylpropyl)-6-(1-naphthalenylmethyl)-5-[(5-nitropyridin-2-yl)thio]thieno[2,3-d]pyrimidine-2,4-(1H, 3H)-dione]"
6,111 °C,"C=C(C)Cn1c(=O)n(C)c(=O)c2cc(Cc3ccc(OC)cc3)sc21 [Example 2, 6-(4-Methoxyphenylmethyl)-3-methyl-1-(2-methyl-2-propenyl)thieno[2,3-d]pyrimidine-2,4(1H,3H)-dione]"
7,230 °C,CC(=O)Nc1cccc(C(=O)Nc2ccc(Cc3cc4c(=O)n(C)c(=O)n(CC(C)C)c4s3)cc2)c1 [Example 94]
8,208 to 209 °C,"CC(C)Cn1c(=O)n(C)c(=O)c2c(Sc3ccc(N)cn3)c(Cc3cccc4ccccc34)sc21 [Example 87, 5-[(5-Amino-2-pyridinyl)thio]-3-methyl-1-(2-methylpropyl)-6-(1-naphthalenylmethyl)thieno[2,3-d]pyrimidine-2,4(1H,3H)-dione]"
9,54 °C,"CC(C)Cn1c(=O)n(C)c(=O)c2cc(C(O)c3cccc(F)c3)sc21 (stereo not drawn) [Example 51, 6-[(1-Hydroxy-1-(3-fluorophenyl))methyl]-3-methyl-1l-(2-methylpropyl)thieno[2,3-d]pyrimiidine-2,4-(1H, 3H)-dione]"
10,152 °C,"CC(C)Cn1c(=O)n(C)c(=O)c2cc(C3OC(=N)c4ccccc43)sc21 (stereo not drawn) [Example 81, 6-(3-Imino-1,3-dihydro-benzo[c]furan-1-yl)-3-methyl-1-(2-methylpropyl)thieno[2,3-d]pyrimidine-2,4(1H, 3H)-dione]"
11,216 to 217 °C,"CC(C)Cn1c(=O)n(C)c(=O)c2c(Sc3cccc(N(S(C)(=O)=O)S(C)(=O)=O)c3)c(Cc3cccc4ccccc34)sc21 [Example 32, 5-{[3-{(Bis-methanesulfonyl)amino}phenyl]thio}-3-methyl-1-(2-methylpropyl)-6-(1-naphthalenylmethy)theino[2,3d]pyrimidine-2,4(1H, 3H)-dione]"
12,201 to 202 °C,"CC(C)Cn1c(=O)n(C)c(=O)c2c(NC(=O)OCCO)c(Cc3cccc4ccccc34)sc21 [Example 49, 2-Hydroxyethyl [1,2,3,4-tetrahydro-3-methyl-1-(2-methylpropyl)-6-(1-naphthalenylmethyl)-2,4-dioxothieno[2,3-d]pyrimidin-5-yl]carbamate]"
